Measurements from patent US20230183742A1, “Viral Vector Production” (Oxford BioMedica (UK) Limited, priority 2020, published 2023).
“And” between values parts separate entries of the source, which are not always exact repeats. Identical values can stand only once. “Also recorded” adds a separate entry of the source. Like-named read-outs stand apart in the source and are kept apart here.

Experiments:
Assay type in all cases: cell-based, human
HEK293T cells [1] = test system: HEK293T cells
HEK293T cells [2] = test system: HEK293T cells; remark: listed apart in the source
HEK293T cells [3] = details: single agent, FIG. 2; for concentration giving optimum vector production: induction 24 h post transfection
[4] = test system: suspension (serum-free) HEK293T cells; assay: Example 8: GFP reporter expression from constitutive promoters in suspension HEK293T with or without prostratin, flow cytometry; details: 11 μM prostratin with 10 mM sodium butyrate, two pDNA input levels, FIG. 18
[5] = test system: HEK293T.1-65s suspension cells
HEK1.65s cells [6] = test system: HEK1.65s cells
HEK1.65s cells [7] = details: for inducing effect on LV titre among HDAC inhibitors: HEK1.65s, 24-well plate, FIG. 7, sodium valproate at 3 mM, valeric acid at 10 mM
HEK1.65s cells [8] = details: 11 μM prostratin + 8 mM sodium butyrate, 40 mL shake flask; FACS and integration QPCR, FIGS. 10A & B
HEK1.65s cells [9] = assay: Example 3 Experiment 2: sodium butyrate x prostratin DOE in suspension HEK1.65s, 24-well plate, GFP titration and JMP model; details: for optimum predicted concentration of combined induction agents: prediction profiler, FIG. 9C
HEK1.65s cells [10] = assay: Example 3: cell viability measurements of induced HEK1.65s cells (Table 6); details: for Cell Viability (%): HEK1.65s; for Δ (cell viability vs No Induction Control): vs no induction control 78.8
HEK1.65s cells [11] = test system: HEK1.65s cells; remark: listed apart in the source
HEK1.65s cells [12] = assay: Example 4: 40 mL shake flask vector production, titre by duplex QPCR integration assay; details: VRC vs VRC+55 nM prostratin, FIG. 10B
HEK293T cells [13] = assay: FIG. 13/14: standard or MSD-mutated lentiviral vector production in HEK293T with modified U1 snRNA, titration and RT-PCR of aberrant splice product; details: modified U1 snRNA co-expressed during production of standard and MSD-mutated LVs
[14] = 11 μM prostratin with 10 mM sodium butyrate
[15] = 256U1 snRNA expression combined with 11 μM prostratin at induction
[16] = single titre enhancing agent (256U1 expression or 11 μM prostratin), 10 mM sodium butyrate

CC(=O)NCCCCCCNC(C)=O [HMBA]
effect on titre in combination with prostratin and sodium butyrate (HEK293T cells [1]; 8 mM HMBA, compared to conditions where HMBA was excluded): notable decrease
effect on titre in combination with alternate HDAC inhibitors (HEK293T cells [1]; with sodium valproate, valeric acid or SAHA, FIG. 6): negative effects on titre
titre relative to the no-induction control (HEK293T cells [2]): approximately 4 fold
effect on titre of combination with HDAC inhibitors (HEK293T cells [2]; compared with HDAC inhibitor alone): no or only marginal improvements in titres; also recorded: did not produce any positive effects on titre
optimum concentration for vector induction (HEK293T cells [2]; single agent, FIG. 4): 16 mM

CC(=O)N[C@@H](CS)C(=O)O [NAC, N-Acetyl Cysteine]
effect on vector titre (HEK293T cells [3]): no positive impact on titre

CCCCCCCCCCCCCC(=O)O[C@@H]1[C@@H](C)[C@@]2(O)[C@@H](C=C(CO)C[C@]3(O)C(=O)C(C)=C[C@@H]23)[C@@H]2C(C)(C)[C@]12OC(C)=O [PMA, Phorbol 12-myristate 13-acetate]
optimum concentration for vector induction (HEK293T cells [2]): 3.2e-05 mM
titre relative to the no-induction control (HEK293T cells [2]): approximately 4 fold
effect on vector titre (HEK293T cells [3]): highest vector induction

O=C(CCCCCCC(=O)Nc1ccccc1)NO [SAHA, suberanilohydroxamic acid]
optimum concentration for vector induction (HEK293T cells [2]; single agent, FIG. 4): 0.001 mM
concentration giving optimum vector production (HEK293T cells [3]): 0.0025 mM

CC(/C=C/C(=O)NO)=C\[C@@H](C)C(=O)c1ccc(N(C)C)cc1 [TSA]
effect on vector titre (HEK293T cells [3]): failed to improve vector titres

O=C(OC[C@H]1O[C@@H](OC(=O)c2cc(O)c(O)c(OC(=O)c3cc(O)c(O)c(O)c3)c2)[C@H](OC(=O)c2cc(O)c(O)c(OC(=O)c3cc(O)c(O)c(O)c3)c2)[C@@H](OC(=O)c2cc(O)c(O)c(OC(=O)c3cc(O)c(O)c(O)c3)c2)[C@@H]1OC(=O)c1cc(O)c(O)c(OC(=O)c2cc(O)c(O)c(O)c2)c1)c1cc(O)c(O)c(OC(=O)c2cc(O)c(O)c(O)c2)c1 [Tannic acid, tannic acid]
effect on vector titre (HEK293T cells [3]): no measurable vector production

CC(=O)O[C@@]12C[C@@H](C)[C@@]3(O)[C@@H](C=C(CO)C[C@]4(O)C(=O)C(C)=C[C@@H]34)[C@@H]1C2(C)C [prostratin, 12-Deoxyphorbol-13-acetate]
induction of GFP transgene expression from constitutive promoters [4]: induction of expression from the promoters; also recorded: clear induction
titres of MSD-mutated LV with Prostratin and 256U1 applied together ([5]; 11 μM Prostratin + 256U1 co-transfection, versus standard LV without inducers): higher that standard LV production titres; also recorded: increased higher than standard SIN-LV vectors
increase in titres of MSD-mutated LV vectors ([5]; 11 μM Prostratin added at the sodium butyrate step, HIV-MSD2KOm5-EFS-GFP or -EF1a-GFP, FIG. 15): 5-10 fold
effect on titres of MSD-mutated and standard SIN-LV [5, 14]: boosted titres
increase in vector titre (HEK293T cells [1]; 10 μM prostratin in combination with 10 mM sodium butyrate): 92%
effect on induction of increasing prostratin from 1 to 10 μM (HEK293T cells [1]; throughout all the tested HDAC inhibitors, FIG. 6): positive enhancement of induction
titre increase compared to standard production control, CAR #1 vector (HEK1.65s cells [6]; [15]): 125 fold
titre increase compared to standard production control, CAR #2-T2A-GFP vector (HEK1.65s cells [6]; [15]): 4.5 fold
titre increase compared to standard production control, CAR #2 vector (HEK1.65s cells [6]; [15]): 7.9 fold
titre increase compared to standard production control, CAR #1 vector (HEK1.65s cells [6]; [16]): 24 fold
titre increase compared to standard production control, CAR #2-T2A-GFP vector (HEK1.65s cells [6]; [16]): 2 fold
titre increase compared to standard production control, CAR #2 vector (HEK1.65s cells [6]; [16]): 2.6 fold
effect on titre of addition alongside HDACi (HEK1.65s cells [7]; prostratin 4-8 μM with HDACi, nearly all cases): increased titres
titre relative to the no-induction control (HEK293T cells [2]): approximately 4 fold
increase of MFI from GFP FACS of transduced cells (HEK293T cells [2]; 16 μM prostratin at induction, residual 0.4 μM after 40-fold vector dilution): 26%
MFI from GFP FACS of transduced cells (HEK293T cells [2]; 0.5 to 8 μM prostratin at induction): not observed to change
optimum concentration for vector induction (HEK293T cells [2]; single agent, FIG. 4): 0.016 mM
vector titre relative to induction with sodium butyrate alone (HEK1.65s cells [8]): 2.4- to 2.9 fold
effect on vector titre (HEK293T cells [3]): highest vector induction
increase of LV titre above optimum sodium butyrate (8 mM) alone (HEK1.65s cells [9]; 11 μM prostratin with 8 mM sodium butyrate, DOE model optimum): 1.93 fold and ~2 fold
increase of GFP-HIV LV titres in combination with HDAC inhibitors (HEK1.65s cells [9]; Example 3 as summarised in Example 4, 24-well plate scale): ≥ 2 fold
effect on titre in combination with sodium butyrate (HEK1.65s cells [9]; FIG. 8): marked positive effect on titre
lowest concentrations causing an increase in titre (HEK1.65s cells [9]; in combination with sodium butyrate): 2 to 4 µM
optimum predicted concentration of combined induction agents (HEK1.65s cells [9]): 11 µM
increase in vector titre compared to the no induction control (HEK1.65s cells [9]; prostratin alone at 8-16 μM): ~13 fold and > 10 fold
inducing effect relative to optimum sodium butyrate (HEK1.65s cells [9]; prostratin alone at 8-16 μM): approximately half the inducing effect of optimum sodium butyrate concentrations
Cell Viability (%) (HEK1.65s cells [10]; 2 μM prostratin, condition 3, vector production period of 48 hours): 79.4%
Δ (cell viability vs No Induction Control) (HEK1.65s cells [10]; 2 μM prostratin, condition 3): +0.6
Cell Viability (%) (HEK1.65s cells [10]; 16 μM prostratin, condition 9, vector production period of 48 hours): 82.2%
Δ (cell viability vs No Induction Control) (HEK1.65s cells [10]; 16 μM prostratin, condition 9): +3.4
Cell Viability (%) (HEK1.65s cells [10]; 32 μM prostratin, condition 45, vector production period of 48 hours): 79.8%
Δ (cell viability vs No Induction Control) (HEK1.65s cells [10]; 32 μM prostratin, condition 45): +1
effect on cell viability (HEK1.65s cells [10]; prostratin 2-32 μM, vector production period of 48 hours): did not present any further loss in cell viability; also recorded: little cytotoxic effect; also recorded: no decrease in cell viability
increase in EIAV-CMV-GFP titre compared to the control titre (HEK1.65s cells [11]; [14]): 2 fold
EIAV-CMV-GFP vector titre at harvest (HEK1.65s cells [11]; 11 μM prostratin with 10 mM sodium butyrate at induction): 9.1E+05 TU/mL
effect of residual prostratin on titres from the integration assay (HEK1.65s cells [12]): identical titres

CCCC(=O)[O-].[Na+] [sodium butyrate]
inducing effect on LV titre among HDAC inhibitors (HEK1.65s cells [7]): highest LV titres
concentration giving optimum vector production (HEK293T cells [3]): 5 mM
optimum predicted concentration of combined induction agents (HEK1.65s cells [9]): 8000 µM
Cell Viability (%) (HEK1.65s cells [10]; 10 mM sodium butyrate, condition 35, vector production period of 48 hours): 74.8%
Δ (cell viability vs No Induction Control) (HEK1.65s cells [10]; 10 mM sodium butyrate, condition 35): −4
loss in cell viability (HEK1.65s cells [10]; sodium butyrate treated cells, vector production period of 48 hours): 4%

CCCC(CCC)C(=O)[O-].[Na+] [sodium valproate]
inducing effect on LV titre among HDAC inhibitors (HEK1.65s cells [7]): some inducing effect
optimum concentration for vector induction (HEK293T cells [2]; single agent, FIG. 4): 10 mM
concentration giving optimum vector production (HEK293T cells [3]): 10 mM

CCCCC(=O)O [valeric acid]
inducing effect on LV titre among HDAC inhibitors (HEK1.65s cells [7]): some inducing effect
optimum concentration for vector induction (HEK293T cells [2]; single agent, FIG. 4): 10 mM
concentration giving optimum vector production (HEK293T cells [3]): 20 mM

B1: 256U1: modified U1 snRNA targeting nt256-270 (SL1 loop) of the HIV-1 packaging signal; expression construct SEQ ID NO: 22 (nucleic acid)
DNA: TAAGGACCAGCTTCTTTGGGAGAGAACAGACGCAGGGGCGGGAGGGAAAAAGGGAGAGGCAGACGTCACTTCCCCTTGGCGGCTCTGGCAGCAGATTGGTCGGTTGAGTGGCAGAAAGGCAGACGGGGACTGGGCAAGGCACTGTCGGTGACATCACGGACAGGGCGACTTCTATGTAGATGAGGCAGCGCAGAGGCTGCTGCTTCGCCACTTGCTGCTTCACCACGAAGGAGTTCCCGTGCCCTGGGAGCGGGTTCAGGACCGCTGATCGGAAGTGAGAATCCCAGCTGTGTGTCAGGGCTGGAAAGGGCTCGGGAGTGCGCGGGGCAAGTGACCGTGTGTGTAAAGAGTGAGGCGTATGAGGCTGTGTCGGGGCAGAGGCCCAAGATCTCATTTGCCGTGCGCGCTTGCAGGGGAGATACCATGATCACGAAGGTGGTTTTCCCAGGGCGAGGCTTATCCATTGCACTCCGGATGTGCTGACCCCTGCGATTTCCCCAAATGTGGGAAACTCGACTGCATAATTTGTGGTAGTGGGGGACTGCGTTCGCGCTTTCCCCTGGTTTCAAAAGTAGACTGTACGCTAAGGGTCATATCTTTTTTTGTTTTGGTTTGTGTCTTGGTTGGCGTCTTAAATGTTAA
modifications: DNA-based expression constructs for the modified U1 snRNAs
titre increase compared to standard production control, CAR #1 vector (HEK1.65s cells [6]; [16]): 46 fold
titre increase compared to standard production control, CAR #2-T2A-GFP vector (HEK1.65s cells [6]; [16]): 2.7 fold
titre increase compared to standard production control, CAR #2 vector (HEK1.65s cells [6]; [16]): 2.5 fold
effect on lentiviral vector titres (HEK293T cells [13]): capable of increasing lentiviral vector titres
